Measurements: patent publication US5703069A, “Method for inhibiting and controlling viral growth” (Warner-Lambert Company, priority 1996, dated 1997)
Read-outs that look alike come from different tables or passages of the source.

What was measured:
OM-10.1 cells [1] = experiment: inhibition of HIV-1 activation / HIV expression in chronically infected OM-10.1 cells (TNF-α induced); assay type: cell-based, human immunodeficiency virus type 1 (HIV-1); conditions: Human immunodeficiency virus 1
From the text: The cellular pathways involved in mediating the activating signal from the plasma membrane to the integrated virus, resulting in HIV-1 expression, are much less clear. Recently, the development of a reliable and simple system for evaluating compounds that could prevent activation of latent HIV was reported at a National Cooperative Discovery Grant (NCDDG)/AIDS meeting by P. Feorino, S. T. Butera, T. M. Folks, and R. F. Schinazi, Nov. 3-7, 1991. The assay system employed the OM-10.1 cell line, a unique chronically-infected promyelocytic clone which remains CD4+ until HIV-1 activation with tumor necrosis factor-α. The expression of CD4+ on the cell surface and the activity of reverse transcriptase are used as markers for quantitating viral expression. Alternatively, other HIV markers, such as protease activity, which are known to those of skill in the art can be used. OM-10.1 cells remain CD4+ until viral activation and respond to tumor necrosis factor induction, and therefore, these cultures are used to conveniently and rapidly examine pharmacologics for an ability to prevent CD4+ down modulation (decrease in expression of CD4+ on the cell surface) and HIV-1 expression.
A variety of compounds known to have antiviral properties against either acutely or chronically infected cells were evaluated for their ability to inhibit HIV expression in these OM-10.1 cells. […]

herpesvirus = experiment: SGC anti-herpesvirus assay; assay type: cell-based; conditions: read-out: IC50 Inhibitory Activity (SGC)
wild type HSV-1 = experiment: PRA (plaque reduction assay with wild type HSV-1); assay type: cell-based; conditions: read-out: IC50 Inhibitory Activity (PRA)
Vero cells = conditions: monkey, 120 h
Experimental: This screen was designed to identify compounds which inhibit HSV-1 in phases of its life cycle from adsorption and penetration through late gene expression. The primary screen, AVUS1, involves adding single compounds to a monolayer of Vero cells to a final concentration of 25 μg/mL, then infecting the cells with a recombinant HSV-1, Us3::Tn5-lacZ. This virus contains an insertion of a lacZ gene driven by a viral late promoter in the US3 protein kinase gene of HSV-1. The infection is allowed to proceed for 20 hours, then the cells are lysed with a solution of Triton X-100 and CPRG in "Z" buffer and assayed for β-galactosidase activity. The positive control used is solvent alone without compound, which corresponds to 0% inhibition, and the negative control used is either no virus added to the wells or 0.5% Triton X-100 added to the wells, which corresponds to 100% inhibition. Percent inhibition of a compound is then calculated using these positive and negative controls. […] In AVUS3, the test compound is dissolved in MeOH at 20 mM. A titration of the compound is then assayed in both the same β-galactosidase virus replication inhibition assay and a 5-day XTT toxicity assay. […]

OM-10.1 cells [2] = conditions: NCDDG/AIDS poster, San Diego, Nov. 3-7 (1991); cited from earlier work
[3] = system: TPA-mediated CD4 down regulation and HIV expression; conditions: Hamamoto et al. 1989; cited from earlier work

COc1ccc2sc3c(c2c1)SCCNC3=O [2,3-Dihydro-9-methoxy[1]benzothieno[2,3-f]-1,4-thiazepin-5(4H)-one]
IC50 (OM-10.1 cells [1]): 0.21 µM
IC50 (herpesvirus): 0.35 µM
IC50 (wild type HSV-1; Human alphaherpesvirus 1, PRA): 0.45 µM
IC50 (wild type HSV-1; PRA): 0.55 µM
CC50 (Vero cells): 60 µM

CC(=O)N(O)CCCCCNC(=O)CCC(=O)N(O)CCCCCNC(=O)CCC(=O)N(O)CCCCCN [desferrioxamine]
inhibition of the activation of HIV-1 (in words) (OM-10.1 cells [2]): modest inhibitors of the activation of HIV-1

CCCCCCCCCCCCCC(=O)O[C@@H]1[C@@H](C)[C@@]2(O)[C@@H](C=C(CO)C[C@]3(O)C(=O)C(C)=C[C@@H]23)[C@@H]2C(C)(C)[C@]12OC(C)=O [12-O-tetradecanoylphorbol-13-acetate]
effect on CD4 and viral expression in HIV-infected cells (in words) [3]: mediates CD4 down regulation and viral expression in HIV-infected cells

Cc1cn([C@H]2C[C@H](F)[C@@H](CO)O2)c(=O)[nH]c1=O [3'-fluoro-3'-deoxythymidine (FLT), 3'-fluoro-3'-deoxythymidine]
inhibition of the activation of HIV-1 (in words) (OM-10.1 cells [2]): modest inhibitors of the activation of HIV-1
